“Also recorded” adds a separate entry of the source. One block for each compound: values may come before it.
Key:
human liver microsomes [1] = test: Metabolism of 20; format: in vitro ADME; conditions: for proportion of 20,25(OH)2D3:20,24R(OH)2D3:20,24S(OH)2D3 at the end of the time course: products of 20(OH)D3, human liver microsomes (Fig. S5A)
recombinant human CYP3A4 = recombinant human CYP3A4 (Homo sapiens, UniProt P08684); test: Metabolism by CYP3A4 supersomes; format: in vitro ADME; conditions: for Km / kcat: initial rates of formation of all products, substrate in 0.45% HP-β-CD, 60 nM CYP3A4, mean ± standard error of the curve fit; for proportion of 20,25(OH)2D3:20,24R(OH)2D3:20,24S(OH)2D3: products of 20(OH)D3, CYP3A4 (Fig. S3A)
SKMEL-188 melanoma cells = conditions: cited from earlier work
human liver microsomes [2] = test system: human liver microsomes
CYP3A4 = conditions: cited from earlier work
[3] = high doses, up to 60 μg/kg in rodents; cited from earlier work
human liver microsomes [4] = test: Incubation of human liver microsomes with CYP3A4 inhibitors; conditions: for decrease of total products: 50 μM 20(OH)D3, 30 min
[5] = total product formation from 20(OH)D3, microsomes 1.5 mg/mL

Sequence of recombinant human CYP3A4 (P08684 2-503 limits assumed): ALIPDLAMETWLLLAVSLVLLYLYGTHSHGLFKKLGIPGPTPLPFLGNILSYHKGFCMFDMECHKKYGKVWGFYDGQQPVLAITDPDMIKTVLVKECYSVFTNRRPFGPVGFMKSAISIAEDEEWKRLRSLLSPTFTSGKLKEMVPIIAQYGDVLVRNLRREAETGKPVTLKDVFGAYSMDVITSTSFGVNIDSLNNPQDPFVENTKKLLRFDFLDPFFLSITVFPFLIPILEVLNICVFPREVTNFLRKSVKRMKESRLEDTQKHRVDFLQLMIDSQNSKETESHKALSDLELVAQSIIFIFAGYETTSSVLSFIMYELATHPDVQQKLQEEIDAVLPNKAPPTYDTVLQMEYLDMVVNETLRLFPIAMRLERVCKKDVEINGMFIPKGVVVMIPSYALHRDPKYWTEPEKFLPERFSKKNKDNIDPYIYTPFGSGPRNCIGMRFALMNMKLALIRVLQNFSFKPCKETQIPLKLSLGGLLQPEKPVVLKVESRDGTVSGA

SMILES: C=C1CC[C@H](O)C/C1=C/C=C1\CCC[C@]2(C)[C@@H]([C@H](C)CCCC(C)(C)O)CC[C@@H]12 [25(OH)D3, 25-hydroxyvitamin D3]
catalytic efficiency for metabolism by CYP3A4 (CYP3A4): 1.32 min⁻¹ µM⁻¹

SMILES: C=C1/C(=C\C=C2/CCC[C@]3(C)[C@@H]([C@H](C)CCCC(C)(C)O)CC[C@@H]23)C[C@@H](O)C[C@@H]1O [1,25(OH)2D3, 1,25-dihydroxyvitamin D3]
efficiency of metabolism by CYP3A4 (CYP3A4): 0.70 min^−1μM^−1

SMILES: C=C1CC[C@H](O)C/C1=C/C=C1\CCC[C@@]2(C)[C@H]1CC[C@@H]2[C@@](C)(O)CC[C@@H](O)C(C)C [20,24R(OH)2D3, 20,24R-dihydroxyvitamin D3]
inhibition of colony formation compared with 20(OH)D3 (SKMEL-188 melanoma cells): more potent; also recorded: more strongly than the parent 20(OH)D3
proportion of 20,25(OH)2D3:20,24R(OH)2D3:20,24S(OH)2D3 at the end of the time course (human liver microsomes [1]): 0.47
Km (recombinant human CYP3A4): 332 ± 194 µM
kcat (recombinant human CYP3A4): 1.08 ± 0.475 s⁻¹
proportion of 20,25(OH)2D3:20,24R(OH)2D3:20,24S(OH)2D3 (recombinant human CYP3A4): 0.41

SMILES: C=C1CC[C@H](O)C/C1=C/C=C1\CCC[C@@]2(C)[C@H]1CC[C@@H]2[C@@](C)(O)CCCC(C)C [20(OH)D3, 20S-Hydroxyvitamin D3]
Km (human liver microsomes [1]; [5]): 165 ± 56 µM
Vmax (human liver microsomes [1]; [5]): 292.6 ± 60.3 min⁻¹
more products with substrate in HP-β-CD than when added from acetonitrile (recombinant human CYP3A4; CYP3A4 supersomes, not shown): 25 fold
metabolised faster than 25(OH)D3 (times) (recombinant human CYP3A4; formation of total products, 50 μM substrate (Fig. S3B)): approximately 30 times
Km (recombinant human CYP3A4): 32.6 ± 2.8 µM
kcat (recombinant human CYP3A4): 0.295 ± 0.0083 s⁻¹
substrate consumed by the end of the incubation (recombinant human CYP3A4; time course of 20(OH)D3 metabolism by CYP3A4 (Fig. S3A)): 18%
hypercalcaemia [3]: does not induce hypercalcaemia

Further lines, with some results ahead:

proportion of 20,25(OH)2D3:20,24R(OH)2D3:20,24S(OH)2D3 at the end of the time course (human liver microsomes [1]): 0.16
Km (recombinant human CYP3A4): 86.9 ± 44.3 µM
kcat (recombinant human CYP3A4): 0.275 ± 0.0717 s⁻¹
proportion of 20,25(OH)2D3:20,24R(OH)2D3:20,24S(OH)2D3 (recombinant human CYP3A4): 0.14
SMILES: C=C1CC[C@H](O)C/C1=C/C=C1\CCC[C@@]2(C)[C@H]1CC[C@@H]2[C@@](C)(O)CC[C@H](O)C(C)C [20,24S(OH)2D3, 20,24S-dihydroxyvitamin D3]

proportion of 20,25(OH)2D3:20,24R(OH)2D3:20,24S(OH)2D3 at the end of the time course (human liver microsomes [1]): 1
further metabolism by CYP3A4 (recombinant human CYP3A4; 25 μM substrate in 0.45% HP-β-CD, 60 nM CYP3A4, one hour): essentially no products formed
proportion of 20,25(OH)2D3:20,24R(OH)2D3:20,24S(OH)2D3 (recombinant human CYP3A4): 1
SMILES: C=C1CC[C@H](O)C/C1=C/C=C1\CCC[C@@]2(C)[C@H]1CC[C@@H]2[C@@](C)(O)CCCC(C)(C)O [20,25(OH)2D3, 20,25-dihydroxyvitamin D3]
inhibition of colony formation compared with 20(OH)D3 (SKMEL-188 melanoma cells): more potent; also recorded: more strongly than the parent 20(OH)D3
Vmax (human liver microsomes [1]; formation of the named product from 20(OH)D3, as given in the text): 134.2 ± 36.0 pmol/min/mg protein

effect on peaks corresponding to 20,25(OH)2D3, 20,24R(OH)2D3/20,26(OH)2D3, 20,24S(OH)2D3 and H6 (human liver microsomes [2]): markedly decreased
SMILES: NNC(=O)c1ccncc1 [isoniazid]

decrease of total products (human liver microsomes [4]; 1 μM azamulin): 60.0%
decrease of total products (human liver microsomes [4]; 10 μM azamulin): 75.9%
inhibition of production of 20,24R(OH)2D3, 20,24S(OH)2D3 and 20,25(OH)2D3 (human liver microsomes [4]; human liver microsomes, abstract statement): almost completely inhibited
SMILES: CC[C@]1(C)C[C@@H](OC(=O)CSc2nnc(N)[nH]2)[C@]2(C)[C@H](C)CC[C@]3(CCC(=O)[C@H]32)[C@@H](C)[C@@H]1O [azamulin]

Reference: paper PMC4821771 (The Journal of steroid biochemistry and molecular biology, 2016)
